Assay results reported in publication PMC11596549 (Metabolites, 2024).
Read-outs that look alike come from different tables or passages of the source. Values belong to the molecule of their own block, whether it stands above or below them.

Experiments:
[1] = cited from earlier work; for effect on D-ARI concentration / higher mean dose-adjusted concentration of ARI / change of serum concentrations of ARI and AM versus control group: TDM database; for effect on D-ARI concentration / higher mean dose-adjusted concentration of ARI: ARI combined with the antidepressant
[2] = Pharmacokinetic drug interaction study: aripiprazole single dose alone or after 6-day bupropion pretreatment, LC-MS/MS quantification, non-compartmental analysis; conditions: for Vz_F / AUC(0-inf) / CL/F / Cmax / MRT / Tmax / k el: aripiprazole in rat plasma; for Vz_F / AUC(0-t) / AUC(0-inf) / CL/F / Cmax / MRT / Tmax / k el / half-life: mean ± S.D.; for AUC(0-t) / AUC(0-inf) / CL/F / Cmax / MRT / Tmax / k el / half-life: male, Wistar albino, rat, plasma, po, 8 mg/kg; for AUC(0-t): AUC0–30, aripiprazole in rat plasma; for AUC(0-inf): AUC0–∞; for CL/F: Cl_F; for k el: kel; for half-life: t1/2, aripiprazole in rat plasma
Description: The suspension was vortex-mixed before each administration. We considered 15 mg ARI a usual therapeutic dose in humans. We multiplied by 10 the dose for rats/kg, but a higher dose of 8 mg/kg body weight (b.w.) was chosen to be suitable for detection in rat plasma, considering the analytical method sensitivity. […] We administered 43 mg/kg b.w. in rats, multiplying the target dose in humans of 300 mg/day by 10.
Twenty-four Wistar albino male rats were divided into two groups.
The collection of blood samples was carried out using the BASi Culex ABC®-Automatic Blood Collector device (BASi, West Lafayette, IN, USA). This facilitated the collection of exact volumes per sample and at exact times post-administration. One day prior to blood sample collection, rats in both groups went through a surgical procedure consisting of a cannula insertion on the femoral vein under intramuscular anesthesia (0.1 mL/100 g b.w. of 1:1 ketamine and xylazine solution), which allowed the device to have access to the rats’ bloodstream. The excess blood drawn on the catheter was returned to the animal along with saline, replacing the volume of blood collected to avoid fluid depletion.
Blood samples, 200 μL each, were automatically drawn in heparinized Eppendorf tubes at 10, 20, 30, 45 min, 1, 1.5, 2, 2.5, 3, 4, 6, 8, 10, 12, 16, 20, 24 and 30 h after ARI single-dose administration in the two experimental groups, and they were immediately placed at −20 °C until further analysis.
Samples were precipitated using acetonitrile. For a 0.1 mL blood sample, 0.3 mL of acetonitrile were added. After the samples were vortex-mixed with IKA Vortex 2 (1000 rpm) for 10 s and centrifuged for 5 min at 10,000 rpm using a Sigma 3-30KS centrifuge (9168× g), the supernatant was injected into the HPLC system.
For concomitant quantification of ARI and D-ARI, a validated reverse-phase liquid chromatography coupled with tandem mass spectrometry (LC-MS/MS) method was developed. The HPLC system Agilent 1100 series with a binary pump, autosampler and thermostat (Agilent Technologies, Santa Clara, CA, USA) was used. The Bruker Ion Trap SL (Bruker Daltonics GmbH, Bremen, Germany) was used for detection. […] Haloperidol spiked into the thawed blood samples was used as an internal standard. The mobile phase consisted of water and 0.3% (m/v) formic acid as eluent A and acetonitrile as eluent B, eluted in a linear gradient (start with 20% acetonitrile, up to 2.5 min 38% acetonitrile, keep at 38% acetonitrile until 4.2 min, re-equilibrate with 20% acetonitrile for 2 min). The injection volume was 5 μL, the flow rate was 1 mL/min and the thermostat temperature was set at 40 °C. The MS detection was in multiple reaction monitoring mode (MRM), and the ESI-MS spectra were recorded in positive ion mode. The following mass transitions were used for analyte quantification: m/z 448 → m/z 285 for ARI, m/z 446 → m/z 285 for D-ARI and m/z 376 → m/z 165 for haloperidol. In these chromatographic conditions, the retention times were 2.80 min for haloperidol, 3.15 min for D-ARI and 3.55 min for ARI, respectively. The concentrations of the two analytes were determined by the instrument data system (QuantAnalysis software, Bruker Daltonics GmbH, Bremen, Germany) using peak area ratios versus concentration ratios of each analyte versus internal standard. The calibration curve model was determined for five calibration series by the linear least squares analysis, weighted (1/y2). […] The matrix effects were measured by comparing the response of the spiked plasma with the response of standards in solvent with the same concentration of ARI and D-ARI as in plasma, and for the measurement of the absolute recovery, a spike and a post-spiked sample were compared [31, 32].

[3] = cited from earlier work
[4] = co-medication, Japanese psychiatric patients
[5] = ARI 8 mg/kg single dose after 6-day BUP 43 mg/kg pretreatment (test, n = 12)
[6] = ARI 8 mg/kg single dose alone (reference, n = 12)
[7] = rats, after BUP repeated doses vs ARI alone

Structure (SMILES): CNCCC(Oc1ccc(C(F)(F)F)cc1)c1ccccc1 (centres unmarked) [fluoxetine]
effect on D-ARI concentration [1]: no effect | higher mean dose-adjusted concentration of ARI [1]: 45% | increase of the C/D ratio of ARI compared to ARI monotherapy ([1]; routine TDM service, concomitant use): 44%

Structure (SMILES): CN(C)CCC[C@@]1(c2ccc(F)cc2)OCc2cc(C#N)ccc21 [Escitalopram]
change of serum concentrations of ARI and AM versus control group ([1]; co-medication): slight but statistically significant | change of the systemic exposure to the AM ([1]; co-medication with ARI): did not significantly change

Structure (SMILES): CNCC[C@H](Oc1cccc2ccccc12)c1cccs1 [duloxetine]
increase of the plasma concentrations of ARI ([1]; large TDM database, co-medication): 54.2%

Structure (SMILES): Fc1ccc([C@@H]2CCNC[C@H]2COc2ccc3c(c2)OCO3)cc1 [paroxetine]
effect on D-ARI concentration [1]: no effect | higher mean dose-adjusted concentration of ARI [1]: 45% | increase of the plasma concentrations of ARI [1, 4]: 1.7 fold | increase of the plasma concentrations of the active moiety (AM) [1, 4]: 1.5 fold

Structure (SMILES): COc1ccc(C(CN(C)C)C2(O)CCCCC2)cc1 (centres unmarked) [venlafaxine]
change of serum concentrations of ARI and AM versus control group ([1]; co-medication): no significant influence

Vz_F [2, 5]: 20.67 ± 27.53 L/kg | Vz_F [2, 6]: 121.64 ± 143.94 L/kg | AUC(0-t) [2, 5]: 5390 ± 2980 ng·h/mL | AUC(0-t) [2, 6]: 1110 ± 931 ng·h/mL | AUC(0-inf) [2, 5]: 6310 ± 2980 ng·h/mL | AUC(0-inf) [2, 6]: 1120 ± 931 ng·h/mL | CL/F [2, 5]: 26.2 mL/min/kg | CL/F [2, 6]: 248 mL/min/kg | Cmax [2, 5]: 472 ± 217 ng/mL | Cmax [2, 6]: 240 ± 169 ng/mL | MRT [2, 5]: 19.2 ± 27.7 h | MRT [2, 6]: 4.63 ± 1.78 h | Tmax [2, 5]: 6.92 ± 2.47 h | Tmax [2, 6]: 1.65 ± 0.8 h | k el [2, 5]: 5e-05 s⁻¹ | k el [2, 6]: 4.17e-05 s⁻¹ | half-life [2, 5]: 692 ± 1220 min | half-life [2, 6]: 334 ± 188 min | decrease of the apparent systemic clearance of ARI [2, 7]: over 9 fold | increase of the mean AUC0–30 of ARI [2, 7]: 4.85 fold | increase of the mean AUC0–∞ of ARI [2, 7]: 5.65 fold | increase of the mean Cmax of ARI [2, 7]: 96.76% | increase of the mean Cmax of ARI ([2]; rats, after BUP repeated doses vs ARI alone, listed as ARI): 2 fold
Structure (SMILES): O=C1CCc2ccc(OCCCCN3CCN(c4cccc(Cl)c4Cl)CC3)cc2N1 [Aripiprazole]
absolute oral bioavailability (F) [3]: 87% | binding to plasma proteins [3]: > 99% | time to reach maximum plasma concentration [3]: 3 to 5 h | time to reach steady-state [3]: 14 days | elimination t1/2 ([3]; poor metabolizers (PMs)): 146 h

Structure (SMILES): CN[C@H]1CC[C@@H](c2ccc(Cl)c(Cl)c2)c2ccccc21 [sertraline]
change of serum concentrations of ARI and AM versus control group ([1]; co-medication): no significant influence

Structure (SMILES): CC(NC(C)(C)C)C(=O)c1cccc(Cl)c1 (centres unmarked) [BUP, Bupropion]
oral bioavailability [3]: 90%
